Tests used:
Test in all cases: 33PanQinase panel
Assay type in all cases: biochemical
MYLK3 = target: T1, MYLK3 (Homo sapiens, UniProt Q32MK0); conditions: MYLK3, 1 µM; read-out: Residual Activity (%)
T1 construct: purchased ProQinase
Procedure: (§1) Figure 5 Dendrogram representation of the selectivity profile of 29d at a concentration of 1 μM in a panel of 320 wild-type kinases (ProQinase, Freiburg, Germany). The residual kinase activity was determined compared to DMSO control. Images were generated using TREEspot Software Tool, DISCOVERX CORPORATION 2010.
(§2) Figure S1. X-ray crystal structure of intermediate compound 25d (ORTEP drawing with ellipsoids at 30% probability). CCDC 1589043 contains the supplementary crystallographic data for this paper. The data can be obtained free of charge from The Cambridge Crystallographic Data Centre via www.ccdc.cam.ac.uk/structures.
(§3) Table S1 Data collection, structure refinement and Ramachrandran plot results of protein crystallization of CK1δ in complex with compound 30a and 30b, respectively.
(§4) Root-mean-square deviations
(§5) Additionally allowed 2.6 2.2
(§6) Table S2. Selectivity profile of compound 29d. The inhibitor has been screened at a concentration of 1 µM over a panel of 320 wild-type protein kinases by ProQinase GmbH (Freiburg, Germany) using an activity-based radiometric 33PanQinase® assay. Results are presented as percentage of residual kinase activity relative to […]
(§7) control. The final DMSO concentration was 1 % in each reaction-mix. Classification of protein kinase families refers to Manning et al. (Manning, G.; Whyte, D. B.; Martinez, R.; Hunter, T.; Sudarsanam, S. The Protein Kinase Complement of the Human Genome. Science 2002, 298, 1912–1934): AGC = containing PKA, PKG, PKC families; […] = containing Cdk, MAPK, GSK3, CLK families; STE = homologs of yeast sterile 7, sterile 11, sterile 20 kinases; TK = tyrosine kinase; TKL = tyrosine kinase-like.
(§8) Kinase name Kinase family Residual Activity (%)

CK1-alpha1 = target: T2, CK1-alpha1 (Homo sapiens, UniProt P48729); conditions: CK1-alpha1, 1 µM; read-out: Residual Activity (%)
T2 construct: purchased ProQinase
Procedure: as §1, §2, §3, §4, §5, §6, §7, §8

RPS6KA4 = target: T3, RPS6KA4 (Homo sapiens, UniProt O75676); conditions: RPS6KA4, 1 µM; read-out: Residual Activity (%)
T3 construct: purchased ProQinase
Procedure: as §1, §2, §3, §4, §5, §6, §7, §8

CDK3/CycC = target: T4, CDK3/CycC (Homo sapiens, UniProt Q00526); conditions: read-out: Residual Activity (%)
T4 construct: purchased ProQinase
Procedure: as §1, §2, §3, §4, §5, §6, §7, §8

CDK9/CycK = target: T5, CDK9/CycK (Homo sapiens, UniProt P50750); conditions: read-out: Residual Activity (%)
T5 construct: purchased ProQinase
Procedure: as §1, §2, §3, §4, §5, §6, §7, §8

WNK3 = target: T6, WNK3 (Homo sapiens, UniProt Q9BYP7); conditions: WNK3, 1 µM; read-out: Residual Activity (%)
T6 construct: purchased ProQinase
Procedure: as §1, §2, §3, §4, §5, §6, §7, §8

TNK1 = target: T7, TNK1 (Homo sapiens, UniProt Q13470); conditions: TNK1, 1 µM; read-out: Residual Activity (%)
T7 construct: purchased ProQinase
Procedure: as §1, §2, §3, §4, §5, §6, §7, §8

ROCK1 = target: T8, ROCK1 (Homo sapiens, UniProt Q13464); conditions: ROCK1, 1 µM; read-out: Residual Activity (%)
T8 construct: purchased ProQinase
Procedure: as §1, §2, §3, §4, §5, §6, §7, §8

ACV-R1 = target: T9, ACV-R1 (Homo sapiens, UniProt Q04771); conditions: ACV-R1, 1 µM; read-out: Residual Activity (%)
T9 construct: purchased ProQinase
Procedure: as §1, §2, §3, §4, §5, §6, §7, §8

CDK3/CycE1 = target: T10, CDK3/CycE1 (Homo sapiens, UniProt Q00526); conditions: CDK3/CycE1, 1 µM; read-out: Residual Activity (%)
T10 construct: purchased ProQinase
Procedure: as §1, §2, §3, §4, §5, §6, §7, §8

STK23 = target: T11, STK23 (Homo sapiens, UniProt Q9UPE1); conditions: STK23, 1 µM; read-out: Residual Activity (%)
T11 construct: purchased ProQinase
Procedure: as §1, §2, §3, §4, §5, §6, §7, §8

CDK8/CycC = target: T12, CDK8/CycC (Homo sapiens, UniProt P49336); conditions: read-out: Residual Activity (%)
T12 construct: purchased ProQinase
Procedure: as §1, §2, §3, §4, §5, §6, §7, §8

NIK = target: T13, NIK (Homo sapiens, UniProt Q99558); conditions: read-out: Residual Activity (%)
T13 construct: purchased ProQinase
Procedure: as §1, §2, §3, §4, §5, §6, §7, §8

STK33 = target: T14, STK33 (Homo sapiens, UniProt Q9BYT3); conditions: STK33, 1 µM; read-out: Residual Activity (%)
T14 construct: purchased ProQinase
Procedure: as §1, §2, §3, §4, §5, §6, §7, §8

PKC-beta1 = target: T15, PKC-beta1 (Homo sapiens, UniProt P05771); conditions: PKC-beta1, 1 µM; read-out: Residual Activity (%)
T15 construct: purchased ProQinase
Procedure: as §1, §2, §3, §4, §5, §6, §7, §8

WNK2 = target: T16, WNK2 (Homo sapiens, UniProt Q9Y3S1); conditions: WNK2, 1 µM; read-out: Residual Activity (%)
T16 construct: purchased ProQinase
Procedure: as §1, §2, §3, §4, §5, §6, §7, §8

HIPK2 = target: T17, HIPK2 (Homo sapiens, UniProt Q9H2X6); conditions: HIPK2, 1 µM; read-out: Residual Activity (%)
T17 construct: purchased ProQinase
Procedure: as §1, §2, §3, §4, §5, §6, §7, §8

MAP3K11 = target: T18, MAP3K11 (Homo sapiens, UniProt Q16584); conditions: MAP3K11, 1 µM; read-out: Residual Activity (%)
T18 construct: purchased ProQinase
Procedure: as §1, §2, §3, §4, §5, §6, §7, §8

p38-alpha = target: T19, p38-alpha (Homo sapiens, UniProt Q16539); conditions: read-out: Residual Activity (%)
T19 construct: purchased ProQinase
Procedure: as §1, §2, §3, §4, §5, §6, §7, §8

CAMKK1 = target: T20, CAMKK1 (Homo sapiens, UniProt Q8N5S9); conditions: CAMKK1, 1 µM; read-out: Residual Activity (%)
T20 construct: purchased ProQinase
Procedure: as §1, §2, §3, §4, §5, §6, §7, §8

BLK = target: T21, BLK (Homo sapiens, UniProt P51451); conditions: read-out: Residual Activity (%)
T21 construct: purchased ProQinase
Procedure: as §1, §2, §3, §4, §5, §6, §7, §8

MAP4K5 = target: T22, MAP4K5 (Homo sapiens, UniProt Q9Y4K4); conditions: MAP4K5, 1 µM; read-out: Residual Activity (%)
T22 construct: purchased ProQinase
Procedure: as §1, §2, §3, §4, §5, §6, §7, §8

MAP4K2 = target: T23, MAP4K2 (Homo sapiens, UniProt Q12851); conditions: MAP4K2, 1 µM; read-out: Residual Activity (%)
T23 construct: purchased ProQinase
Procedure: as §1, §2, §3, §4, §5, §6, §7, §8

SRC (GST-HIS-tag) = target: T24, SRC (GST-HIS-tag) (Homo sapiens, UniProt P12931); conditions: read-out: Residual Activity (%)
T24 construct: purchased ProQinase
Procedure: as §1, §2, §3, §4, §5, §6, §7, §8

PRKG2 = target: T25, PRKG2 (Homo sapiens, UniProt Q13237); conditions: PRKG2, 1 µM; read-out: Residual Activity (%)
T25 construct: purchased ProQinase
Procedure: as §1, §2, §3, §4, §5, §6, §7, §8

EPHB3 = target: T26, EPHB3 (Homo sapiens, UniProt P54753); conditions: EPHB3, 1 µM; read-out: Residual Activity (%)
T26 construct: purchased ProQinase
Procedure: as §1, §2, §3, §4, §5, §6, §7, §8

T13 sequence (Q99558 whole entry): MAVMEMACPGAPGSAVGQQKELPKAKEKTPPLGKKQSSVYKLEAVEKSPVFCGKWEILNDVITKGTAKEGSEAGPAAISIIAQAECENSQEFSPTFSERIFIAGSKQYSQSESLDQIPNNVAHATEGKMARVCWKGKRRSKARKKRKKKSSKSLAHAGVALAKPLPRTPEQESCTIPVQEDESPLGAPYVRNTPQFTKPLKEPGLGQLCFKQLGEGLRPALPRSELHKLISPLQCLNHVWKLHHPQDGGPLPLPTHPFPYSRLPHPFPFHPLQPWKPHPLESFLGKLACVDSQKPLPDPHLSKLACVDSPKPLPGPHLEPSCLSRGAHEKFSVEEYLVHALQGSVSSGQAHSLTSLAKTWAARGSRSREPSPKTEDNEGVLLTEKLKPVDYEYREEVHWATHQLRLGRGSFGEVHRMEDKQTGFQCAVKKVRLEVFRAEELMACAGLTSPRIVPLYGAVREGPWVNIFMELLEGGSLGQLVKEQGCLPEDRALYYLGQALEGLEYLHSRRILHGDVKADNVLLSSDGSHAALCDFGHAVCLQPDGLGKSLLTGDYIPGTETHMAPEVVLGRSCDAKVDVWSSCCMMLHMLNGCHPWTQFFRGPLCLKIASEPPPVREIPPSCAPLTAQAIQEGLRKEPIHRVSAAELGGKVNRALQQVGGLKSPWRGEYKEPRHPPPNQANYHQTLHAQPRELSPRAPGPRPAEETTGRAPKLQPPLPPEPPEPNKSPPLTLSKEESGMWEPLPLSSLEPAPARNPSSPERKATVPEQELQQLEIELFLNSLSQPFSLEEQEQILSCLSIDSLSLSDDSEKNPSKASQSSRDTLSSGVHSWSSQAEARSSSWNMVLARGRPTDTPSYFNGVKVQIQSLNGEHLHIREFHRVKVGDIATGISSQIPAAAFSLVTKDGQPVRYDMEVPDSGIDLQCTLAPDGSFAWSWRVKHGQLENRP
T3 sequence (O75676 whole entry): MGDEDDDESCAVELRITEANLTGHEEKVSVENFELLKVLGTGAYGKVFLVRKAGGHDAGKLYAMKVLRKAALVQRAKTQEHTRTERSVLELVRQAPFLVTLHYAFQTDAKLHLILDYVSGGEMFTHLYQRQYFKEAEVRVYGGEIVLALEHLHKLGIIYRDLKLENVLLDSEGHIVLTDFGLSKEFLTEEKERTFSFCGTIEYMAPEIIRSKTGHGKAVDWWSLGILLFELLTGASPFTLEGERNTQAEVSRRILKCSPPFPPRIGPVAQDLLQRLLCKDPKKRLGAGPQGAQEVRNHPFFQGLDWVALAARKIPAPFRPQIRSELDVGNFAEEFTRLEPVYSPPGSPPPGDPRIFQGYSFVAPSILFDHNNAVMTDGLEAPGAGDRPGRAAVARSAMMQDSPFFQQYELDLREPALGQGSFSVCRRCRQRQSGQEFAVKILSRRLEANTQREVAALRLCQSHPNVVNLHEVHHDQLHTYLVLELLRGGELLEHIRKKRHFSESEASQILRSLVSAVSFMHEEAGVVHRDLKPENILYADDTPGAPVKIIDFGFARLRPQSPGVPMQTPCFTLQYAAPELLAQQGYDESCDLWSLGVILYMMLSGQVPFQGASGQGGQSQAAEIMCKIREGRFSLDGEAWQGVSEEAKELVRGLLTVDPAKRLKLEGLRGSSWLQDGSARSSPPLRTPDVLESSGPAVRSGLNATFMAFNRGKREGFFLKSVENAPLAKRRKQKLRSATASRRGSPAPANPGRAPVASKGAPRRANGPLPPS
T17 sequence (Q9H2X6 whole entry): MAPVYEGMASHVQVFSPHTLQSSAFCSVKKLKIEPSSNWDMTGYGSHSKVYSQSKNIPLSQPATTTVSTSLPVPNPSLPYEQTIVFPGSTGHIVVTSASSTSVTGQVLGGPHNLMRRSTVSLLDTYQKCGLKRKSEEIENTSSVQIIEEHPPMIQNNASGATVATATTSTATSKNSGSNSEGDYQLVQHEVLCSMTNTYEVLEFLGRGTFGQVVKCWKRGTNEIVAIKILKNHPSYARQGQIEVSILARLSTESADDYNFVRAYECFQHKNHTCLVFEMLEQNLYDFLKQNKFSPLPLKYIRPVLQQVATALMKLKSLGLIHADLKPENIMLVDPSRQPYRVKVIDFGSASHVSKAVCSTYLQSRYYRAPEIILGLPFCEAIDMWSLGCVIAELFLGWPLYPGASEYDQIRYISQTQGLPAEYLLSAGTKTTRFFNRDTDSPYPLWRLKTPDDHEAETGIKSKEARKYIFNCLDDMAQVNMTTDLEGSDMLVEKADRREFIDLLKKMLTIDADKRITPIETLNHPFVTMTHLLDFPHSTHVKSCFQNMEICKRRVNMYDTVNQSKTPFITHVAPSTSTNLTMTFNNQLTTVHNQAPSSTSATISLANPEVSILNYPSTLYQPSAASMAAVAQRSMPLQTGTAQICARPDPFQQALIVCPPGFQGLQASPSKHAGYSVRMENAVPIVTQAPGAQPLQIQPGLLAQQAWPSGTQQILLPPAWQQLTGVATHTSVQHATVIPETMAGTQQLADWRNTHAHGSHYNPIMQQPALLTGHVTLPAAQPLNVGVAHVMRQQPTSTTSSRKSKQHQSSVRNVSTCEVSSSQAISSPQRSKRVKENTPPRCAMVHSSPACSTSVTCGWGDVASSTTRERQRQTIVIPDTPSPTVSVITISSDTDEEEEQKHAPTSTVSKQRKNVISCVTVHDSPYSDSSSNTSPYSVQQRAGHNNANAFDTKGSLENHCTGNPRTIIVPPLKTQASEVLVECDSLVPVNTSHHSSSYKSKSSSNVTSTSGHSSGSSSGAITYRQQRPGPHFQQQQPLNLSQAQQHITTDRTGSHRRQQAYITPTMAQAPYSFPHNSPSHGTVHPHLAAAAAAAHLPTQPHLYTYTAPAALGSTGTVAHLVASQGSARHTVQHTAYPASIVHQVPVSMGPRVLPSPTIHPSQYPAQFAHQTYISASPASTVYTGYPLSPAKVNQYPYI
T14 sequence (Q9BYT3 whole entry): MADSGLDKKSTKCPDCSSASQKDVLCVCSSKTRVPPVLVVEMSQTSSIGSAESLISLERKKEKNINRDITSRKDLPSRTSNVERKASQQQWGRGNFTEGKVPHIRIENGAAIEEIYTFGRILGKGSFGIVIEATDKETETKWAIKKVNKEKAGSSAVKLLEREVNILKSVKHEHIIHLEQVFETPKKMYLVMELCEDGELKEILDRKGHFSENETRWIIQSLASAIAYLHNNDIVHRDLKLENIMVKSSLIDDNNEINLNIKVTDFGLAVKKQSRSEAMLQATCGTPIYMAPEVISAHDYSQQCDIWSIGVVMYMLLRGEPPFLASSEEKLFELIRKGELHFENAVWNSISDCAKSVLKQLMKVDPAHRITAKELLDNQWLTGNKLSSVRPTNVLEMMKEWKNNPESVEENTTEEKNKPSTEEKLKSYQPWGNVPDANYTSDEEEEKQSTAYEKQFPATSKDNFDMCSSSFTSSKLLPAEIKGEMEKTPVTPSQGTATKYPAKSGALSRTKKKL
T8 sequence (Q13464 whole entry): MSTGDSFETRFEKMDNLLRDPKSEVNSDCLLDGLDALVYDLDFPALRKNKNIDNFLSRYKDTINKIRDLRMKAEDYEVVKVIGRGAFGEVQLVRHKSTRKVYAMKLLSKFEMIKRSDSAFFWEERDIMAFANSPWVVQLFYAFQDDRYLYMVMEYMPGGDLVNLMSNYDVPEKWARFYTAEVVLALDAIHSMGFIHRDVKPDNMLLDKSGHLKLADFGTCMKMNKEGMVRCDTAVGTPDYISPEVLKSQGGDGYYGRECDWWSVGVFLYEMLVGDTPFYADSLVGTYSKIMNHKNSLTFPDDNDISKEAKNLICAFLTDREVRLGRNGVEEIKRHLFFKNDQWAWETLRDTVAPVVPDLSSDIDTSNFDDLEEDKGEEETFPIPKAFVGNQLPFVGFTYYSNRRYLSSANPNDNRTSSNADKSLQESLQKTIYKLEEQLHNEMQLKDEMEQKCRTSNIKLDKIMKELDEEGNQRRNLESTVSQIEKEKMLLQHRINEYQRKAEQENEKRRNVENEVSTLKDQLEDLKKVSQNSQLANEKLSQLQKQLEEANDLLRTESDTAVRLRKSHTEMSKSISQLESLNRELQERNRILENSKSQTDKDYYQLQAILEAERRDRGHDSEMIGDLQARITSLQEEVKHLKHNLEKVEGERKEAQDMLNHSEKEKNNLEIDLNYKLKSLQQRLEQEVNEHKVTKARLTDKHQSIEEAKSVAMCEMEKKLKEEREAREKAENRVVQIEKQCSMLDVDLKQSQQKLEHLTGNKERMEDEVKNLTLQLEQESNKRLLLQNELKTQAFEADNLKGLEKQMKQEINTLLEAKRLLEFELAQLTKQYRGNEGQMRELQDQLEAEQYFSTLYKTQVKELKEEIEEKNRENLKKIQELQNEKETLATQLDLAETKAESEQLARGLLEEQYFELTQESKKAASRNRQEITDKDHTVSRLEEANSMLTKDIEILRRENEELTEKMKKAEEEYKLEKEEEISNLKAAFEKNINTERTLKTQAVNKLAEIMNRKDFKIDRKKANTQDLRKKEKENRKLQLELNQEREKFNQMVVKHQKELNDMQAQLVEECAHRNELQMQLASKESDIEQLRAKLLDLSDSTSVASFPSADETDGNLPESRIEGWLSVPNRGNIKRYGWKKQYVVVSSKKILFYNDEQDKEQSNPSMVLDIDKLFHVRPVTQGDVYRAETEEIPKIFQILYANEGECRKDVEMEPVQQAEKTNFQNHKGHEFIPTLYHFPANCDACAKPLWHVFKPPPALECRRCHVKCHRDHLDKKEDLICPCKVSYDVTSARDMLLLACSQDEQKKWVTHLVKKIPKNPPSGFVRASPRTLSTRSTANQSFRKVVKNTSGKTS

Q: For `COc1ccc(-c2cc(C(=O)Nc3cc(-c4c(-c5ccc(F)cc5)noc4C(C)C)ccn3)n(CC3NCC(O)C3O)c2)cc1` (centres unmarked) [29d], which remaining activity at 1 µM (MYLK3) is on record?
A: The remaining activity at 1 µM was 87%.

Q: What about the remaining activity at 1 µM (CK1-alpha1) of the same molecule?
A: The remaining activity at 1 µM was 16%.

Q: What about the remaining activity at 1 µM (RPS6KA4) of the same molecule?
A: Its remaining activity at 1 µM is 105%.

Q: And the remaining activity at 1 µM (CDK3/CycC)?
A: The remaining activity at 1 µM was 100%.

Q: What about the remaining activity at 1 µM (CDK9/CycK) of the same molecule?
A: Its remaining activity at 1 µM is 97%.

Q: What about the remaining activity at 1 µM (WNK3) of the same molecule?
A: The remaining activity at 1 µM was 103%.

Q: What about the remaining activity at 1 µM (TNK1) of the same molecule?
A: Its remaining activity at 1 µM is 104%.

Q: And the remaining activity at 1 µM (ROCK1)?
A: The remaining activity at 1 µM was 92%.

Q: And the remaining activity at 1 µM (ACV-R1)?
A: Its remaining activity at 1 µM is 105%.

Q: And the remaining activity at 1 µM (CDK3/CycE1)?
A: The remaining activity at 1 µM was 103%.

Q: And the remaining activity at 1 µM (STK23)?
A: The remaining activity at 1 µM was 96%.

Q: And the remaining activity at 1 µM (CDK8/CycC)?
A: The remaining activity at 1 µM was 106%.

Q: What about the remaining activity at 1 µM (NIK) of the same molecule?
A: Its remaining activity at 1 µM is 98%.

Q: And the remaining activity at 1 µM (STK33)?
A: The remaining activity at 1 µM was 84%.

Q: What about the remaining activity at 1 µM (PKC-beta1) of the same molecule?
A: Its remaining activity at 1 µM is 116%.

Q: And the remaining activity at 1 µM (WNK2)?
A: The remaining activity at 1 µM was 103%.

Q: What about the remaining activity at 1 µM (HIPK2) of the same molecule?
A: Its remaining activity at 1 µM is 83%.

Q: What about the remaining activity at 1 µM (MAP3K11) of the same molecule?
A: Its remaining activity at 1 µM is 88%.

Q: What about the remaining activity at 1 µM (p38-alpha) of the same molecule?
A: The remaining activity at 1 µM was 17%.

Q: And the remaining activity at 1 µM (CAMKK1)?
A: Its remaining activity at 1 µM is 89%.

Q: And the remaining activity at 1 µM (BLK)?
A: Its remaining activity at 1 µM is 110%.

Q: And the remaining activity at 1 µM (MAP4K5)?
A: Its remaining activity at 1 µM is 96%.

Q: And the remaining activity at 1 µM (MAP4K2)?
A: The remaining activity at 1 µM was 93%.

Q: What about the remaining activity at 1 µM (SRC (GST-HIS-tag)) of the same molecule?
A: Its remaining activity at 1 µM is 125%.

Q: And the remaining activity at 1 µM (PRKG2)?
A: The remaining activity at 1 µM was 100%.

Q: And the remaining activity at 1 µM (EPHB3)?
A: Its remaining activity at 1 µM is 138%.

— article PMC6429214, “Design, Synthesis and Biological Evaluation of Isoxazole-Based CK1 Inhibitors Modified with Chiral Pyrrolidine Scaffolds” (Molecules, 2019)
